pEC50: −log10 of the molar value. Where two headings read alike, the source gives them in different places. *1 amine or outer side, *2 acyl side, *3 side chain or, on linkers, in order; H or OH if unused. Where a SMILES comes first, the peptide text is derived from it. [ ]: non-standard residue; d: D form. The star is where a group is joined. Asp(3,3-(CH2)4) = N[C@H](C(=O)O)C1(C(=O)O)CCCC1; tBuAla = CC(C)(C)C[C@H](N)C(=O)O; Tle = CC(C)(C)[C@H](N)C(=O)O; NH(3-pentyl) = CCC(CC)N*; Pyrrolidide = C1CCN(*)C1; X2 = CC(C)(C)CC(C)(C)N*; CO = O=C([*:1])[*:2]; X1 = CCCC1(N*)CCCC1; X3 = CCCC(C)(C)N*
Tested on: Herpes Simplex Virus (HSV-2)
Type: cell-based
Protocol: BHK-21/C13 cells (ATCC CCL 10) are incubated for two days in 150 cm^2 T-flasks (1.5 x 10^6 cells/flask) with alpha-MEM medium (Gibco Canada Inc., Burlington, Ontario, Canada) supplemented with 8% (v/v) fetal bovine serum (FBS, Gibco Canada Inc.). The cells are trypsinized and then transferred to fresh media in a 24 well plate to give 2.5 x 10^5 cells in 750 µL of media per well. The cells are incubated at 37° for a period of 6 h to allow them to adhere to the plate. Thereafter, the cells are washed once with 500 µL of alpha-MEM supplemented with 0.5% (v/v) FBS and then incubated with 750 µL of the same media (low serum) for 3 days. After this period of serum starvation, the low serum medium is removed and the cells are incubated in 500 µL of BBMT for 2 to 3 hours. {BBMT medium is described by P. Brazeau et al., Proc. Natl. Acad. Sci. USA, 79, 7909 (1982).} Thereafter, the cells are infected with HSV-2 (multiplicity of infection = 0.02 PFU/cell) in 100 µL of BBMT medium. (Note: The HSV-2 used was strain HG-52, see Y. Langelier and G. Buttin, J. Gen. Virol., 57, 21 (1981); the virus was stored at -80°.) Following 1 h of virus adsorption at 37°, the media is removed and the cells are washed with BBMT (3 X 250 µL). The cells in each well are incubated with or without (control) appropriate concentrations of the test agent dissolved in 200 µL of BBMT medium. After 29 h of incubation at 37°, the infected cells are harvested by first freezing the plate at -80°, followed by thawing. The cells in each well are scraped off the surface of the well with the help of the melting ice fragments. After complete thawing, the cell suspensions are collected and each well is rinsed with 150 µL of BBMT medium. The viral sample (suspension plus washing) is sonicated gently for 4 min at 4°. Cell debris are removed by centrifugation (1000 times gravity for 10 minutes at 4°). The supernatant is collected and stored at -80° until determination of viral titer.
Viral titration was performed by a modification of the colorimetric assay method of M. Langlois et al., Journal of Biological Standardization, 14, 201 (1986).
More specifically, in a similar manner as described above, BHK-21/C13 cells are trypsinized and transferred to fresh media in a 96 well microtiter plate to give 20,000 cells in 100 µL of media per well. The cells in the prepared plate are incubated at 37° for, 2 h. During that time, the viral sample is thawed and sonicated gently for 15 seconds, and log dilutions of the sample are prepared (1/5 sequential: 50 µL of the sample plus 200 µL of BBMT medium, sequential dilutions being done with a multichannel pipette.
On completion of the above 2 hour incubation of the BHK-21/C13 cells, the media is replaced with alpha-MEM medium supplemented with 3% (v/v) FBS. The cells are now ready to be infected with the various sample dilutions of virus. Aliquots (50 µL) of the various dilutions are transferred into the appropriate wells of the plate. The resulting infected cells are incubated for 2 days at 37°. Then 50 µL of a 0.15% (v/v) solution of neutral red dye in Hank's Balanced Salt Solution (pH 7.3, Gibco Canada Inc.) is added to each well. The prepared plate is incubated for 45 min at 37°. Medium from each well is then aspirated and the cells are washed once with 200 µL of Hank's Balanced Salt Solution. After the wash, the dye is released from the cells by the addition of 100 µL of a 1:1 mixture of 0.1 M Sorensen's citrate buffer (pH 4.2) and ethanol. {Sorensen's citrate buffer is prepared as follows: Firstly, a 0.1 M disodium citrate solution is prepared by dissolving citric acid monohydrate (21 g) in 1 N aqueous NaOH (200 mL) and adding sufficient filtered H2O to make 1 L. Secondly, the 0.1 M disodium citrate solution (61.2 mL) is mixed with 0.1 N aqueous HCl (38.8 mL) and the pH of the resulting solution is adjusted to 4.2 if necessary.} The mixture in the wells is subjected to a gentle vortex action to ensure proper mixing.

SMILES | pEC50 (29 h) | pEC50 (concentration effecting 50% inhibition of virus replication, BHK-21/C13 cells infected with HSV-2 strain HG-52 (0.02 PFU/cell), 29 h incubation, colorimetric (neutral red) viral titration, read-out: EC50)
CCCC1(NC(=O)N[C@H](C(=O)N[C@@H](CC(=O)N2CCCC2)C(=O)N[C@H](C(=O)N[C@@H](CC(C)(C)C)C(=O)O)C2(C(=O)O)CCCC2)C(C)(C)C)CCCC1 [(1-propylcyclopentyl)NHCO-Tbg-Asp-(pyrrolidino)-Asp(cyPn)-γMeLeu-OH] ({X1-CO}-[Tle]D(Pyrrolidide)[Asp(3,3-(CH2)4)][tBuAla]-OH) | 3.72 | –
CCCC(CCC)NC(=O)N[C@H](C(=O)N[C@@H](CC(=O)N1CCCC1)C(=O)N[C@H](C(=O)N[C@H](CO)CC(C)(C)C)C1(C(=O)O)CCCC1)C(C)(C)C(=O)O [Pr2CHNHC(O)-Asp(diMe)-Asp(pyrrolidino)-Asp(cyPn)-γMeLeucinol] | 3.77 | –
CC(C)(C)C[C@H](NC(=O)[C@@H](NC(=O)[C@H](CC(=O)N1CCCC1)NC(=O)[C@@H](NC(=O)NC(C)(C)CC(C)(C)C)C(C)(C)C)C1(C(=O)O)CCCC1)C(=O)O [Me3CCH2CMe2NHC(O)-Tbg-Asp(pyrrolidino)-Asp(cyPn)-γMeLeu-OH] ({X2-CO}-[Tle]D(Pyrrolidide)[Asp(3,3-(CH2)4)][tBuAla]-OH) | – | 3.96
CCCC(CCC)NC(=O)N[C@H](C(=O)N[C@@H](CC(=O)C1CCCC1)C(=O)N[C@H](C(=O)NCC(C)(C)C)C1(C(=O)O)CCCC1)C(C)(C)C [Pr2CHNHC(O)-Tbg-NHCH(2-cyclopentyl-2-oxoethyl)C(O)-Asp(cyPn)-NHCH2CMe3] | 4.05 | –
CCC(CC)NC(=O)N[C@H](C(=O)N[C@@H](CC(=O)N1CCCC1)C(=O)N[C@H](C(=O)N[C@@H](CC(C)(C)C)C(=O)O)C1(C(=O)O)CCCC1)C(C)(C)C [Et2CHNHC(O)-Tbg-Asp(pyrrolidino)-Asp(cyPn)-γMeLeu-OH] ({NH(3-pentyl)-CO}-[Tle]D(Pyrrolidide)[Asp(3,3-(CH2)4)][tBuAla]-OH) | 3.74 | –
CCCC(CCC)NC(=O)N[C@H](C(=O)N[C@@H](CC(=O)C(CC)CC)C(=O)N[C@H](C(=O)NCC(C)(C)C)C1(C(=O)O)CCCC1)C(C)(C)C [Pr2CHNHC(O)-Tbg-NHCH(3-ethyl-2-oxopentyl)CO-Asp(cyPn)-NHCH2CMe3] | 4.60 | –
CCCC(CCC)NC(=O)N[C@H](C(=O)N[C@@H](CC(=O)N1CCCC1)C(=O)N[C@H](C(=O)N[C@H](C)C(C)(C)C)C1(C(=O)O)CCCC1)C(C)(C)C [Pr2CHNHC(O)-Tbg-Asp(pyrrolidino)-Asp(cyPn)-NHCH-(R)-CH(Me)CMe3] | 4.26 | –
CCC(CC)NC(=O)N[C@H](C(=O)N[C@@H](CC(=O)N1CCCC1)C(=O)N[C@H](C(=O)N[C@@H](CC(C)C)C(=O)O)[C@H](C(=O)O)C(C)C)C(C)(C)C [Et2CHNHC(O)-Tbg-Asp(pyrrolidino)-Asp{(R)-iPr}-Leu-OH] | 3.52 | –
CCCC(CCC)NC(=O)N[C@H](C(=O)N[C@@H](CC(=O)N1CCCC1)C(=O)N[C@H](C(=O)N[C@H](CO)CC(C)(C)C)C1(C(=O)O)CCCC1)C(C)(C)S [Pr2CHNHC(O)-NH-(R)-CH{C(CH3)2SH}CO-Asp(pyrrolidino)-Asp(cyPn)-γMeLeucinol] | 3.54 | –
CCCC(C)(C)NC(=O)N[C@H](C(=O)N[C@@H](CC(=O)N1CCCC1)C(=O)N[C@H](C(=O)N[C@@H](CC(C)(C)C)C(=O)O)C1(C(=O)O)CCCC1)C(C)(C)C [PrMe2CNHC(O)-Tbg-Asp(pyrrolidino)-Asp(cyPn)-γMeLeu-OH] ({X3-CO}-[Tle]D(Pyrrolidide)[Asp(3,3-(CH2)4)][tBuAla]-OH) | 3.96 | –
CCCC(CCC)NC(=O)N[C@H](C(=O)N[C@@H](CC(=O)N1CCCC1)C(=O)N[C@H](C(=O)N[C@H](CO)CC(C)(C)C)C1(C(=O)O)CCCC1)C(C)(C)O [Pr2CHNHC(O)-NH-(S)-CH{C(CH3)2OH}-C(O)-Asp(pyrrolidino)-Asp(cyPn) γMeLeucinol] | 3.68 | –
CCCC(CCC)NC(=O)N[C@H](C(=O)N[C@@H](CC(=O)N1CCCC1)C(=O)N[C@H](C(=O)NCC(C)(C)C)C1(C(=O)O)CCCC1)C(C)(C)C [Pr2CHNHC(O)-Tbg-Asp(pyrrolidino)-Asp(cyPn)-NHCH2CMe3] | 3.82 | –
CCCC(CCC)NC(=O)N[C@H](C(=O)N[C@@H](CC(=O)N1CCCC1)C(=O)N[C@H](C(=O)NCC(C)(C)CC)C1(C(=O)O)CCCC1)C(C)(C)C [Pr2CHNHC(O)-Tbg-Asp(pyrrolidino)-Asp(cyPn)-NHCH2CMe2Et] | 3.97 | –
